Activity calls are given as the source filed them.
Key:
[1] = target: G-protein coupled receptor 55 (Homo sapiens, UniProt Q9Y2T6); assay: blockers of GPR55 signalling, imaged – imaging, image-based, counter-screen for GPR35 antagonist project, SAR follow-up (AID 2397); assay type: functional
[2] = target: Voltage-dependent T-type calcium channel subunit alpha-1H (Homo sapiens, UniProt O95180); assay: inhibition of CACNA1H calcium flux – cell-based, SynthLib3 library, HEK293 Cav3.2, fluorescence (AID 493041); assay type: functional
[3] = target: UDP-galactopyranose mutase (Mycobacterium tuberculosis, UniProt P9WIQ1); assay: Inhibitors of Mycobacterium tuberculosis UDP-galactopyranose mutase (UGM) enzyme Measured in Biochemical System Using Plate Reader - 2105-02_Inhibitor_Dose_CherryPick_Activity. [Related pubchem assays (depositor defined):AID504439]
[4] = blockers of HIV-1 ZM109 envelope-driven cell-cell fusion – HeLa effector, CEM target cells, luciferase, cherry-pick, dose response (AID 652058); assay type: functional, cell-based;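 also: luciferase signal from HIV-1 Env mediated cell-cell fusion of effector and target cells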
[5] = target: T1, Short transient receptor potential channel 4 (Mus musculus, UniProt Q9QUQ5); assay: block of DAMGO-driven TRPC4 calcium entry – cell-based, HEK293 TRPC4/mu-opioid, Fluo-4 calcium, dose response (AID 434942); assay type: functional;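 also: potency of inhibitors blocking the TRPC4 calcium response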
T1 sequence (Q9QUQ5 whole entry): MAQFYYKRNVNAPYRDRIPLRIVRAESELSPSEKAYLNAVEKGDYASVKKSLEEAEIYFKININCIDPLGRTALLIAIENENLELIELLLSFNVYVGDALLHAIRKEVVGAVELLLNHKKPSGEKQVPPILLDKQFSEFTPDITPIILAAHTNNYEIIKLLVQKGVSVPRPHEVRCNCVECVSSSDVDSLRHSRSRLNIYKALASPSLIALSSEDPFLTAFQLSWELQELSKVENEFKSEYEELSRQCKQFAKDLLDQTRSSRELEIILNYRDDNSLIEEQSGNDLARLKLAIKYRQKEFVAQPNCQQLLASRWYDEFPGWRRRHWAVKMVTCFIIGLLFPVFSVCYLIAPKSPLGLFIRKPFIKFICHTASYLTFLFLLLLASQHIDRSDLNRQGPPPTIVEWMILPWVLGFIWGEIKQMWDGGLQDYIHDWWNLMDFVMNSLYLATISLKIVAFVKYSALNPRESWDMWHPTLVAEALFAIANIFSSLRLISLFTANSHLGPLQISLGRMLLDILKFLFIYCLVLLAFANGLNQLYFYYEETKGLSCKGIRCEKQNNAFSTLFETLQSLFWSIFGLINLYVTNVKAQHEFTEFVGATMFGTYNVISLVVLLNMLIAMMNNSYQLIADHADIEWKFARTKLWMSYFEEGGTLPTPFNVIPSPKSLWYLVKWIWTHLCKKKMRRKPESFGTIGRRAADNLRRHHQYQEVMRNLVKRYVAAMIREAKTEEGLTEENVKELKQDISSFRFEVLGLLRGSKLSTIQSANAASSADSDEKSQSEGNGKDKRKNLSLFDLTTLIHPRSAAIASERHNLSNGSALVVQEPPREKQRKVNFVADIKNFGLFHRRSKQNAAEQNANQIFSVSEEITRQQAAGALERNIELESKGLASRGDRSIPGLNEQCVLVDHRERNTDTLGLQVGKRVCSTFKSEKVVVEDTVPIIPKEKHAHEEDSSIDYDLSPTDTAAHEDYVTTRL

[6] = MIN6 cell viability loss – mouse insulinoma, cytotoxicity control, dose response (AID 2122); assay type: functional;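 also: confirmatory high-throughput counterscreen run to flag cytotoxic compounds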
[7] = HIV-1 AD8 envelope cell-cell fusion blockers – cherry-pick, dose response (AID 652062); assay type: functional, cell-based;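 also: luciferase signal from cell-cell fusion driven by HIV-1 clade B AD8 Env; potency is for inhibitors of fusion seen as a drop in luminescence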
[8] = blockers of HIV-1 envelope-mediated cell-cell fusion – cherry-pick, dose response (AID 652057); assay type: functional, cell-based
[9] = decrease of insulin promoter-GFP reporter – imaging, high-content screening, mouse beta cells (AID 1628); assay type: functional; settings: MIN6
[10] = target: Cyclin-dependent kinase 5/CDK5 activator 1 (Homo sapiens, UniProt Q00535); assay: blockade of human CDK5 activity – biochemical, cherry-picked samples, set 2, dose response (AID 504545)
[11] = viability loss in CEM21 cells – cell-based, CellTiter-Glo luminescence, cherry-picked, cytotoxicity control for viral fusion inhibitor project, dose response (AID 652042); assay type: functional;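 also: potency for signal decrease meaning cytotoxicity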
[12] = off-target signal loss in HeLa-CEM21 co-culture – HeLa F-luc CTL cells, cherry-picked, counter-screen for HIV-1 Env fusion inhibitor project, dose response (AID 652040); assay type: functional, cell-based;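 also: potency for signal decrease marking cytotoxic or nonspecific inhibition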

Chain of G-protein coupled receptor 55 (Q9Y2T6 whole entry): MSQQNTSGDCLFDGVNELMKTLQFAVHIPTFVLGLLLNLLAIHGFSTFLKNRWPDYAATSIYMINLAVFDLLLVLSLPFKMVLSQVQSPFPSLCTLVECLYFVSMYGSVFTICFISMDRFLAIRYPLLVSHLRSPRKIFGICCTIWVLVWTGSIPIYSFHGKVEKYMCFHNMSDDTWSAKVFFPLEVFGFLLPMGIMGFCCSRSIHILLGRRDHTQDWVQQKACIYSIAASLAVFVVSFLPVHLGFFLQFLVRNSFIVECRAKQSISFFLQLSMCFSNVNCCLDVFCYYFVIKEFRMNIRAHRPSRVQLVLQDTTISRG
Chain of Cyclin-dependent kinase 5/CDK5 activator 1 (Q00535 whole entry, the tested form may be a part): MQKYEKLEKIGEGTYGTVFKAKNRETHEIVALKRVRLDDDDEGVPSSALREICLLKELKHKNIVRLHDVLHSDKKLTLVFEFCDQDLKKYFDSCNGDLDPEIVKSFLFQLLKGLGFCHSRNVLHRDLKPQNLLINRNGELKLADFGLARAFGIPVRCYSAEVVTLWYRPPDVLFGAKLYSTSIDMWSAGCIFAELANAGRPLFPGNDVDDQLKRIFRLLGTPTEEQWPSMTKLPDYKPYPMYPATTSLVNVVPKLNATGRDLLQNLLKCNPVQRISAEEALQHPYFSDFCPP
Chain of Cyclin-dependent kinase 5/CDK5 activator 1 (Q15078 whole entry, further chain, the tested form may be a part): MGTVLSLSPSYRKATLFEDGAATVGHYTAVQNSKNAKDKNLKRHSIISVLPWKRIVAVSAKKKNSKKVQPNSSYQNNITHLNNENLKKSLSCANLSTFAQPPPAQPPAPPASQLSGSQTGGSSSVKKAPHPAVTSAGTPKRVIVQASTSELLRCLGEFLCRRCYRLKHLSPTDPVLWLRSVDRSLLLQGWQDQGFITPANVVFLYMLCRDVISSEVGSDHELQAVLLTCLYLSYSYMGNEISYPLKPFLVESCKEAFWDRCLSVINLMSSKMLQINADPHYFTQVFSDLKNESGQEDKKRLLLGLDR
Chain of UDP-galactopyranose mutase (P9WIQ1 whole entry, the tested form may be a part): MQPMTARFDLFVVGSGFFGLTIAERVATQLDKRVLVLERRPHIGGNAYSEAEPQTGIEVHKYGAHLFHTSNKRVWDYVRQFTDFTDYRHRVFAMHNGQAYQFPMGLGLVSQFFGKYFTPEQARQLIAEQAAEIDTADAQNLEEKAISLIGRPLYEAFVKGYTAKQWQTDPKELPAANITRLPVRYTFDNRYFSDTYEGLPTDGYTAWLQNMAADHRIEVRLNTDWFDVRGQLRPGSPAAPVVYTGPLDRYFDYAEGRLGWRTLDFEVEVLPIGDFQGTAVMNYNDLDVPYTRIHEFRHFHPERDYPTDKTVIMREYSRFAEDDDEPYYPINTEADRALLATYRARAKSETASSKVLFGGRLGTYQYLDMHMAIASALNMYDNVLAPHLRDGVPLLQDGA
Chain of Voltage-dependent T-type calcium channel subunit alpha-1H (O95180 whole entry): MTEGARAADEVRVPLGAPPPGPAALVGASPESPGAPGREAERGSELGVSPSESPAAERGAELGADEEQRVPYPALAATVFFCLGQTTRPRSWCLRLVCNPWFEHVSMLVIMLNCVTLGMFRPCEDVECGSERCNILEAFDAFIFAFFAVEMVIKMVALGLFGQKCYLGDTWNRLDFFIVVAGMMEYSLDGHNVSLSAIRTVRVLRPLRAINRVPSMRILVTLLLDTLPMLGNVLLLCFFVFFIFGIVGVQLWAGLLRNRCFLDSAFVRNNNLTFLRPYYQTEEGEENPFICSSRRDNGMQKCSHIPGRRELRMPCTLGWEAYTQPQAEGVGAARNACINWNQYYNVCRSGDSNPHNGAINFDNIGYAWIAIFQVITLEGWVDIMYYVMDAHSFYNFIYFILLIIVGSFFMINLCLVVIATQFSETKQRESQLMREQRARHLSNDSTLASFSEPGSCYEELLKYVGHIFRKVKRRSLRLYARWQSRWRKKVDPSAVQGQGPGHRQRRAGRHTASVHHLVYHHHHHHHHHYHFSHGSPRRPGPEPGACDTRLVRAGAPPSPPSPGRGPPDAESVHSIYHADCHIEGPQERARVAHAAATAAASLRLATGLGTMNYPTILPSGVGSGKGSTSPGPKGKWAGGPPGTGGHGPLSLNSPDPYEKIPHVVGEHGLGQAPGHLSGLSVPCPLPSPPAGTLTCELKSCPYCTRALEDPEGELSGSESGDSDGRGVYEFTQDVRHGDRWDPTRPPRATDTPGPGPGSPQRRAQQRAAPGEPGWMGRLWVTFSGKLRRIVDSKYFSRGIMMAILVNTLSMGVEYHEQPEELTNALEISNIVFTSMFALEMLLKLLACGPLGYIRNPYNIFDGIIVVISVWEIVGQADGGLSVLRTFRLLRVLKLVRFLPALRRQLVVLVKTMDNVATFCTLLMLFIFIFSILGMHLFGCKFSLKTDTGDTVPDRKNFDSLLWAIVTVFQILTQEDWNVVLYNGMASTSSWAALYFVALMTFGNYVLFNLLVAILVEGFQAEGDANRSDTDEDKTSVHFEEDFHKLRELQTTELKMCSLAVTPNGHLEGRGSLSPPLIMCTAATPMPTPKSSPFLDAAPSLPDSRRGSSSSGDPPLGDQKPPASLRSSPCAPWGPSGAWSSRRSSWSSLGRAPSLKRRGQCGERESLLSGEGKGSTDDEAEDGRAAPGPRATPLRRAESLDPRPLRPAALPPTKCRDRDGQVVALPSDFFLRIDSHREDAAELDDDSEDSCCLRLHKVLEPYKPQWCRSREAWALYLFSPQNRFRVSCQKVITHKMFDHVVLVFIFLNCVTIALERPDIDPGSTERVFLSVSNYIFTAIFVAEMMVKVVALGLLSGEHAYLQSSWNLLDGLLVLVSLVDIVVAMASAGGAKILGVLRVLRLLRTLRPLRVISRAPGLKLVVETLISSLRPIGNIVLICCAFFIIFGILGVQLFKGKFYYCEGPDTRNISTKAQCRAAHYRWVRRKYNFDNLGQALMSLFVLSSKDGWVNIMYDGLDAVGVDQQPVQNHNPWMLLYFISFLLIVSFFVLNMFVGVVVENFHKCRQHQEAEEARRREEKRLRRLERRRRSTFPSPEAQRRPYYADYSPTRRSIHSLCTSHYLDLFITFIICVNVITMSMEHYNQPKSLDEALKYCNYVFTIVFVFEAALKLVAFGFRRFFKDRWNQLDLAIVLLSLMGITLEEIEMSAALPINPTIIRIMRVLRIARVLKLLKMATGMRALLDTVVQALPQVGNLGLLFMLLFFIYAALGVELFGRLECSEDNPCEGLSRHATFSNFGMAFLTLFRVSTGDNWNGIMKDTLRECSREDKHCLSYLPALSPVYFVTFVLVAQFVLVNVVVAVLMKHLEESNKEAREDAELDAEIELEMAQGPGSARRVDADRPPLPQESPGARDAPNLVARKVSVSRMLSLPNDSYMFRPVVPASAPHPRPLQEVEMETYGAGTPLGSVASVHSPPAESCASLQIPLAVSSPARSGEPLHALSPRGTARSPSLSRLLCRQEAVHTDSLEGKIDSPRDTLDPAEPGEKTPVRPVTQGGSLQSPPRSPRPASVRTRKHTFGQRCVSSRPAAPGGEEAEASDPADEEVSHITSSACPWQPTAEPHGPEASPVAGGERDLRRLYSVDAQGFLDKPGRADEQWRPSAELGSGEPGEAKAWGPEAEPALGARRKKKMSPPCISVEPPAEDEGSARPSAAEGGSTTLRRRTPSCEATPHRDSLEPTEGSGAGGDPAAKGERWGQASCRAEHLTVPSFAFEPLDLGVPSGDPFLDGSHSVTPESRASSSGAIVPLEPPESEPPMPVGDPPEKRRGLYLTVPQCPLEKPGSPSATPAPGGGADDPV

## c1ccc(-c2n[n+](-c3ccccc3)c(-c3ccccc3)s2)cc1
[1]
  IC50: > 32 µM (inactive)

## CC(C)(C)Cc1nnc(NC(=O)COc2ccc(Cl)cc2Cl)o1
[2]
  EC50: 0.81 µM (active)

## CCOC(=O)c1c(O)[n+]([O-])c2ccc(OC)cc2[n+]1[O-]
[3]
  AC50: 200 µM (active)

## CCCn1c(NC(=O)c2cccc(S(=O)(=O)N3CCCC3)c2)nc2ccccc21
[4]
  AC50: 11.2 µM (active)
[5]
  EC50: 0.749 µM (active)
[6]
  IC50: 4.19 µM (active)
[7]
  AC50: 9.76 µM (active)
[8]
  AC50: 8.66 µM (active)
[9]
  IC50: 3.34 µM (active)
[10]
  AC50: 3.94 µM (active)
[11]
  AC50: 9.5 µM (active)
[12]
  AC50: 20.4 µM (active)

From ChEMBL document CHEMBL1201862, “PubChem BioAssay data set” (2004)
